Laboratory results as given in patent US11117856B2, “Polyamine compounds targeting the efflux pumps of multi-drug resistant bacterial pathogens and methods of using the same” (UNIVERSITY OF SOUTH FLORIDA, priority 2016, dated 2021).
“And” between values parts separate entries of the source, which are not always exact repeats. Equal entries are not always repeated.

Legend:
P. aeruginosa cells = assay: Bacterial membrane depolarization (DiSC3 dye); assay type: cell-based; conditions: 25 μg mL^−1
Protocol: To determine the level of membrane depolarization by polyamine compounds a 3,3′-dipropylthiadicarbocyanine Iodide (DiSC3) fluorescence dye was used. Exponentially growing cultures were prepared as described above, before being harvested by centrifugation. Cells were next washed in buffer A (5 mM HEPES pH 7.2, 5 mM glucose) and resuspended to an OD600 of 0.2 in the same buffer containing 100 mM KCl and 2 μM DiSC3. Samples were allowed to equilibrate for 15 minutes at room temperature to ensure uptake and quenching of the dye in bacterial membranes. Cells were aliquoted into 96-well plates and polyamines were added alongside the known efflux inhibitor PAN (all at 25 μg mL^−1). Nisin (25 μg mL^−1) was used as a positive control to display depolarization effects. A Biotek plate reader was used to monitor fluorescence of wells, with a 622 nm excitation and 670 nm emission. For graphical representation, the maximum relative fluorescence at 2 minutes was used for comparison of lead agents to controls.

P. aeruginosa biofilm = assay: Pre-formed biofilm viability assessment with tetracycline; assay type: cell-based; conditions: for biofilm cells recovered, EPI alone: 25 μg mL^−1 (MPC), no tetracycline;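 for biofilm recovery, combination treatment: percent recovery versus no treatment controls after 20 Hours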
Protocol: (§1) Lead agents were screened for bactericidal activity as described previously (Van Horn, et al. J. Med. Chem. 2014, 57, 3075-3093; […], et al. J. Med. Chem. 2015, 58, 3340-3355), with the following modifications. […] Biofilm experiments were performed similar to those described previously ([…], et al. J. Med. Chem. 2015, 58, 3340-3355; von Salm, et al. Org. Lett. 2016, 18, 2596-2599), with the following modifications.

P. aeruginosa [1] = assay: Bactericidal assessment with tetracycline; assay type: cell-based
Protocol: as §1

[2] = tested on: tetracycline resistant strain of P. aeruginosa; assay: Checkerboard potentiation assay with tetracycline; assay type: cell-based; conditions: for FP* (Fold Potentiation, EC50): EC50 tetracycline with no TPI/with TPI; for FP* (Fold Potentiation, EC50) / FP^# (Fold Potentiation, EC90): 25 μg mL^−1 TPI; for FP^# (Fold Potentiation, EC90): EC90 tetracycline with no TPI/with TPI; for FP*^c (Fold Potentiation, EC50): Table 1, tetracycline EC50; for FP^#c (Fold Potentiation, EC90): Table 1, tetracycline EC90; for TPI (inhibitory concentration of the polyamines alone to produce EC values): polyamine alone, no tetracycline, 25 μg mL^−1 highest concentration tested
Protocol: (§2) The bacterial strains used in this study are multi-drug resistant clinical isolates that have previously been described (TABLE 2) (Fleeman, et al. J. Med. Chem. 2015, 58, 3340-3355). Organisms were grown in tryptic soy broth (TSB) for overnight cultures, and cation adjusted Mueller Hinton broth (CA-MH II) was used for experimental procedures. All incubations were performed at 37° C.
(§3) Scaffold ranking library samples and individual polyamines were screened using checkerboard inhibitory assays to assess the potentiation of tetracycline and chloramphenicol. The test utilized a 96-well plate microtiter assay where the concentration of the scaffold or individual polyamine was decreased from 25 μg mL^−1 to 0.8 μg mL^−1 (average molarity of 65 μM to 4 μM) along the rows, and the concentration of tetracycline or chloramphenicol was increased from 0.4 μM to 100 μM across the columns. Plates were incubated statically at 37° C. for 20 hours, and the optical density (OD600) was determined using a Synergy 2 plate reader (Biotek). Potentiation modeling (detailed below) was performed to determine fold change in the 50% and 90% effective concentration of tetracycline or chloramphenicol.
Potentiation was quantified using a mathematical model developed by our group to assess the ability of library samples and individual compounds to effectively enhance the activity of tetracycline or chloramphenicol (Hoel, D. G. Statistical Aspects of Chemical Mixtures. Methods for assessing the effects of mixtures of chemicals. 1987, New York). […] In this way, only libraries and compounds that potentiated tetracycline or chloramphenicol activity were pursued. The model is based on the following equation for modeling the percentage activity of a mixture of two agents with independent action (Hoel, et al. Statistical Aspects of Chemical Mixtures. Methods for assessing the effects of mixtures of chemicals. 1987, New York): %Antibiotic & Comp(x1,x2)=%Antibiotic(x1)+%Comp(x2)−%Antibiotic(x1)·%Comp(x2)
Here, x1 and x2 are the concentrations of antibiotic (tetracycline or chloramphenicol) and library/compound (Comp) tested, respectively. This equation can be rearranged to model the effective percent activity (EC) of the antibiotic alone, after accounting for compound activity:
[formula] Thus, the model-adjusted checkerboards show the antibiotic activity post-potentiation, and from that one can determine the true change in MIC.

Hek293T cells = assay: MTT cytotoxicity assay; assay type: cell-based, human; conditions: 25 μg mL^−1, 48 hours
Protocol: (§4) To assess toxicity of polyamine compounds we used HepG2 human liver carcinoma cells and Hek293T human embryonic kidney epithelial cells. […] J. Med. Chem. 2015, 58, 3340-3355). […] Cells were then incubated for 48 hours at 37° C. with 5% CO2. Following this, viability was assessed by the addition of MTT and measuring the OD570 in a Biotek plate reader. Percent recovery was determined compared to no drug controls.

HepG2 cells = assay: MTT cytotoxicity assay; assay type: cell-based, human; conditions: 25 μg mL^−1 (highest concentration tested), 48 hours
Protocol: as §4

P. aeruginosa [3] = assay: Checkerboard potentiation assay with chloramphenicol; assay type: cell-based; conditions: increasing EPI concentration, dose response
Protocol: as §2
as §3, with “Potentiation modeling (detailed below) was performed to determine fold change in the 50% and 90% effective concentration of tetracycline or chloramphenicol.” left out
Potentiation was quantified using a mathematical model developed by our group to assess the ability of library samples and individual compounds to effectively enhance the activity of tetracycline or chloramphenicol (Hoel, D. G. Statistical Aspects of Chemical Mixtures. Methods for assessing the effects of mixtures of chemicals. 1987, New York). […]

[4] = 25 μM tetracycline + MPC of EPI
[5] = 50 μM tetracycline + MPC of EPI
[6] = 12 μM tetracycline + MPC of EPI

FP* (Fold Potentiation, EC50) [2] [fold]	FP^# (Fold Potentiation, EC90) [2] [fold]	FP*^c (Fold Potentiation, EC50) [2]	FP^#c (Fold Potentiation, EC90) [2] [fold]	Molecule	change in DiSC3 fluorescence (membrane depolarization) (P. aeruginosa cells)	biofilm recovery, combination treatment (P. aeruginosa biofilm; [4]) [%]	biofilm cells recovered, EPI alone (P. aeruginosa biofilm) [%]	biofilm recovery, combination treatment (P. aeruginosa biofilm; [5]) [%]	percent recovery of Hek293T cells compared to solvent only controls (Hek293T cells) [%]	percent recovery, combination treatment (P. aeruginosa [1]; [6]) [%]	percent recovery, combination treatment (P. aeruginosa [1]; [5]) [%]	TPI (inhibitory concentration of the polyamines alone to produce EC values) [2] [µg/mL]	HepG2 cell viability / recovery (HepG2 cells) [%]	other results
				nisin	strong increase in fluorescence									
				CN(C)[C@@H]1C(O)=C(C(N)=O)C(=O)[C@@]2(O)C(O)=C3C(=O)c4c(O)cccc4[C@@](C)(O)[C@H]3C[C@@H]12 [tetracycline, reference compound]										more biofilm eradication on increasing tetracycline by itself (P. aeruginosa biofilm; from 12 μM to 25 μM): 4%; biofilm cells recovered, tetracycline alone (P. aeruginosa biofilm; tetracycline 50 μM): 9%; less recovery on increasing tetracycline alone (P. aeruginosa [1]; from 12 μM to 25 μM): 17.8%; bacterial recovery, tetracycline alone (P. aeruginosa [1]; tetracycline 12 μM): 53%; bacterial recovery, tetracycline alone (P. aeruginosa [1]; tetracycline 25 μM): 35%; bacterial recovery, tetracycline alone (P. aeruginosa [1]; tetracycline 50 μM): 1%; EC50 ([2]; Pseudomonas aeruginosa, no EPI, average across all replicates, read-out: tetracycline alone EC50): 47.8 µM; EC90 ([2]; no library or EPI, average across all replicates, read-out: tetracycline alone EC90): 82.5 µM
5	7.5	5 fold and 5.0 fold	8.3	CNCCCC[C@@H](CN)NC[C@H](Cc1ccccc1)NCCc1ccccc1 [TPI 247, (S)—N6-methyl-N2—((S)-2-(phenethylamino)-3-phenylpropyl)hexane-1,2,6-triamine]		0.6	99.99	0.2	84	2.9	0.04	>25		
5	7.5	5 fold and 5.0 fold	7.5	NCCC[C@@H](CN[C@H](CN)Cc1ccccc1)NCCc1ccccc1 [TPI 314, (S)—N^1—((S)-1-amino-3-phenylpropan-2-yl)-N^2-phenethylpentane-1,2,5-triamine]		1	99.99	0.6		5.3	0.01	>25	77	
			1	COC(=O)[C@H]1[C@H]2C[C@@H]3c4[nH]c5cc(OC)ccc5c4CCN3C[C@H]2C[C@@H](OC(=O)c2cc(OC)c(OC)c(OC)c2)[C@@H]1OC [Reserpine, reference compound]										
				O=C(N[C@H](CO)[C@H](O)c1ccc([N+](=O)[O-])cc1)C(Cl)Cl [chloramphenicol]	decreased in florescence									
8.2	8.5	8.2 fold	8.5	NCCC[C@H](CN)NC[C@H](Cc1ccccc1)NCCc1ccccc1 [TPI 271, (R)—N^2—((S)-2-(phenethylamino)-3-phenylpropyl)pentane-1,2,5-triamine]		0.5	99.99	0.2	75	2	0.02	>25	74	
6.8	5.8	6.8 fold	5.8	CNCCCC[C@H](CN)NC[C@H](Cc1ccccc1)NCCc1ccccc1 [TPI 266, (R)—N^6-methyl-N^2—((S)-2-(phenethylamino)-3-phenylpropyl)hexane-1,2,6-triamine]		1	92	0.6	72	0.76	0.01	>25		potentiation of chloramphenicol EC90 (P. aeruginosa [3]): highest potentiation values
7	7.8	7.0 fold	7.8	NCC[C@@H](CN)NC[C@H](Cc1ccccc1)NCCc1ccccc1 [TPI 250, (S)—N^2—((S)-2-(phenethylamino)-3-phenylpropyl)butane-1,2,4-triamine]		1	99.99	0.5		2.2	0.01	>25	80	biofilm recovery, combination treatment (P. aeruginosa biofilm; [6]): 21%; improvement of tetracycline alone biofilm eradication (P. aeruginosa biofilm; [6]): 67%

Molecule	FP* (Fold Potentiation, EC50) [2] [fold]	FP^# (Fold Potentiation, EC90) [2] [fold]	FP*^c (Fold Potentiation, EC50) [2]	FP^#c (Fold Potentiation, EC90) [2] [fold]	change in DiSC3 fluorescence (membrane depolarization) (P. aeruginosa cells)	biofilm recovery, combination treatment (P. aeruginosa biofilm; [4]) [%]	biofilm cells recovered, EPI alone (P. aeruginosa biofilm) [%]	biofilm recovery, combination treatment (P. aeruginosa biofilm; [5]) [%]	percent recovery of Hek293T cells compared to solvent only controls (Hek293T cells) [%]	percent recovery, combination treatment (P. aeruginosa [1]; [6]) [%]	percent recovery, combination treatment (P. aeruginosa [1]; [5]) [%]	TPI (inhibitory concentration of the polyamines alone to produce EC values) [2] [µg/mL]	HepG2 cell viability / recovery (HepG2 cells) [%]	other results
phenylalanine arginine beta naphthalamide [PAβN, reference compound]			65.5 fold	8	strong increase in fluorescence	7		1	63	0.79	0.02		68	percent recovery, combination treatment (P. aeruginosa [1]; [4]): 0.2%; bacterial recovery (viability), EPI alone (P. aeruginosa [1]; 25 μg mL^−1, no tetracycline): 76%; TPL (inhibitory concentration of the Torrey Pines Library alone to produce an EC90 value) [2]: >25 µg/mL; FP (Fold Potentiation, EC90) ([2]; EC90 tetracycline with no TPL/EC90 tetracycline with TPL, 25 μg mL−1 library): 8.01 fold; EPI*^a (inhibitory concentration of the individual Efflux Pump Inhibitor alone) ([2]; EPI alone, 50% effective concentration): >25 µg/mL
